Reference: paper PMC9962964, “^68Ga-Labeled [Thz^14]Bombesin(7–14) Analogs: Promising GRPR-Targeting Agonist PET Tracers with Low Pancreas Uptake” (Molecules, 2023)
Read-outs that look alike come from different tables or passages of the source.

Assays:
[1] = target: T1, GRPR (Homo sapiens, UniProt P30550); experiment: Fluorometric calcium release assay in PC-3 cells; type: cell-based; design: generated using GRPR-expressing PC-3 cells; endogenous in cells; host or cells: PC-3 cells; conditions: 50 nM ligand
T1 sequence (P30550 whole entry): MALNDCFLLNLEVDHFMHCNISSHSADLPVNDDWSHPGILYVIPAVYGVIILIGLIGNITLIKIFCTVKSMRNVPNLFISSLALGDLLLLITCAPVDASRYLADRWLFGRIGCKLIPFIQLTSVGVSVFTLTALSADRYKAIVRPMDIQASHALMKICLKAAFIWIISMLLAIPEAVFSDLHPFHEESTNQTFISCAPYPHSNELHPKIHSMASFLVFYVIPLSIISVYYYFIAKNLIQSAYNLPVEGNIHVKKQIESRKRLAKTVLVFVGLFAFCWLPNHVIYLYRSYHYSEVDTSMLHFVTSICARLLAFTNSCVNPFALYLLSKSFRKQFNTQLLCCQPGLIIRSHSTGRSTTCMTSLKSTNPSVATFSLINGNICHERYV
Method: Following previously published procedures, 5 × 10^4 PC-3 cells in 100 μL of growth media were seeded per well in a 96-well, clear bottom black plate 24 h before the assay. The loading buffer (100 μL/well), containing a calcium-sensitive dye (FLIPR Calcium 6 assay kit), was added to the 96-well plate. After incubation at 37 °C for 2 h, the plate was placed in a FlexStation 3 microplate reader (Molecular Devices). […] Agonistic/antagonistic properties were determined using the relative fluorescent unit (RFU = max–min).

[2] = pH 7.4
Method: Briefly, aliquots (2 μL) of the ^68Ga-labeled peptides were added into a 15 mL falcon tube containing 3 mL of n-octanol and 3 mL of 0.1 mol/L DPBS (pH 7.4). The mixture was vortexed for 1 min and then centrifuged at 3000 rpm for 15 min. Samples of the n-octanol (1 mL) and buffer (1 mL) layers were collected and measured in a gamma counter. LogD7.4 was calculated using the following equation: LogD7.4 = log10 [(counts in the n-octanol phase)/(counts in the buffer phase)].

[3] = 15 min post-injection
Method: PET/CT imaging, biodistribution, and in vivo stability studies were conducted on male NOD.Cg-Rag1^tm1Mom Il2rg^tm1Wjl/SzJ (NRG) mice, following previously published procedures. The experiments were conducted according to the guidelines established by the Canadian Council on Animal Care and approved by the Animal Ethics Committee of the University of British Columbia (protocol number A20-0113, approved on 30 September 2020). […] Mice were used for PET/CT imaging and biodistribution studies when the tumor grew to 5–8 mm in diameter over around 4 weeks.
At 15 min post-injection, mice were sedated and euthanized, and urine and blood were collected. The plasma was extracted from whole blood by adding CH3CN (500 μL), vortex, centrifugation, and the separation of supernatant. The plasma and urine samples were analyzed via radio-HPLC using the conditions for quality control of these ^68Ga-labeled radioligands (Table S3).

[4] = Ex vivo biodistribution in PC-3 tumor-bearing mice; design: species or system NRG mice; conditions: mouse, 1 h post-injection; for tissue to tissue ratio at 1 h: male, NRG (NOD.Cg-Rag1^tm1Mom Il2rg^tm1Wjl/SzJ), iv, total radioactivity; for tissue uptake at 1 h: intravenous
Method: For biodistribution studies, the mice were injected with the radiotracer (2–4 MBq) via the tail vein as described above. For blocking, the mice were co-injected with 100 μg of [D-Phe^6,Leu-NHEt^13,des-Met^14]Bombesin(6–14). At 1 h post-injection, the mice were anesthetized through isoflurane inhalation and euthanized through CO2 inhalation. Blood was collected through a cardiac puncture, and organs/tissues of interest were collected, weighed, and counted using a Perkin Elmer (Waltham, MA, USA) Wizard2 2480 automatic gamma counter.

[5] = test system: PC-3 tumor xenografts; experiment: PET/CT imaging of PC-3 tumor xenografts; type: in vivo, NRG mice; conditions: 1 h post-injection
Method: PET/CT imaging experiments were performed on a Siemens (Knoxville, TN) Inveon micro PET/CT scanner. The tumor-bearing mouse was injected with 3–5 MBq of ^68Ga-labeled tracer through a lateral caudal tail vein under anesthesia, followed by recovery and roaming freely in its cage during the uptake period. At 50 min post-injection, a 10 min CT scan was conducted first for the localization and attenuation correction after segmentation for reconstructing the PET images, followed by a 10 min static PET imaging acquisition.

[6] = target: T1, GRPR; design: generated using GRPR-expressing PC-3 cells; endogenous in cells; method as in PMID 21552898, PMID 7809097; conditions: Schally group; cited from earlier work
[7] = target: T1, GRPR; experiment: In vitro competition binding assay with [125I-Tyr4]Bombesin on PC-3 cells; design: generated using GRPR-expressing PC-3 cells; endogenous in cells; host or cells: PC-3 cells; conditions: displacement of [125I-Tyr4]Bombesin, n = 3
Method: PC-3 cells were seeded in 24-well, poly-D-lysine plates at 2 × 10^5 cells/well 24–48 h prior to the assay. […] Then, the plates were incubated for about 60 min at 37 °C. […] Data were analyzed using nonlinear regression (one binding site model for competition assay) with GraphPad (San Diego, CA, USA) Prism 8.4.3 software.

With Nc1ncnc2c1ncn2[C@@H]1O[C@H](COP(=O)(O)OP(=O)(O)OP(=O)(O)O)[C@@H](O)[C@H]1O [ATP, adenosine triphosphate] the “Ca2+ efflux (RFU = max–min)” value [1] was 334 ± 39.0 RFUs.

With CC(C)C[C@H](NC(=O)[C@H](Cc1c[nH]cn1)NC(=O)CNC(=O)[C@@H](NC(=O)[C@H](C)NC(=O)[C@H](Cc1c[nH]c2ccccc12)NC(=O)[C@H](CCC(N)=O)NC(=O)[C@@H](Cc1ccc2ccccc2c1)NC(=O)CN1CCC(NC(=O)CN2CCN(CC(=O)O)CCN(CC(=O)O)CCN(CC(=O)O)CC2)CC1)C(C)C)C(=O)N1CSC[C@H]1C(N)=O [[^68Ga]Ga-TacBOMB3, metal not drawn] the logD [2] was -2.55 ± 0.03, the “intact fraction in plasma” value ([3]; mouse plasma, n = 3) was 27.3 ± 4.84% and the “intact tracer in urine” value ([3]; mouse urine) was “no intact”. It also gave a tissue to tissue ratio at 1 h ([4]; tumor and bone, n = 4, read-out: Tumor/bone uptake ratio) of 29.9 ± 8.5, a tissue to tissue ratio at 1 h ([4]; tumor and intestines, n = 4, read-out: Tumor/intestines uptake ratio) of 4.93 ± 0.84 and a tissue to tissue ratio at 1 h ([4]; tumor and kidney, n = 4, read-out: Tumor/kidney uptake ratio) of 1.34 ± 0.58. For the same compound, the tissue to tissue ratio at 1 h ([4]; tumor and muscle, n = 4, read-out: Tumor/muscle uptake ratio) was 23.5 ± 9.61, the tissue to tissue ratio at 1 h ([4]; tumor and pancreas, n = 4, read-out: Tumor/pancreas uptake ratio) was 2.21 ± 0.4 and the tissue to tissue ratio at 1 h ([4]; tumor and whole blood, n = 4, read-out: Tumor/blood uptake ratio) was 5.61 ± 2.33. It also gave a tissue uptake at 1 h ([4]; PC-3 tumor, n = 4, read-out: PC-3 tumor uptake) of 5.09 ± 0.54 %ID/g, a tissue uptake at 1 h ([4]; blood, n = 4, read-out: Blood uptake) of 1.06 ± 0.51 %ID/g and a tissue uptake at 1 h ([4]; brain, muscle, fat, bone, liver, stomach, heart, and spleen, read-out: Uptake values for the brain, muscle, fat, bone, liver, stomach, heart, and spleen) of less than 1 %ID/g. For the same compound, the tissue uptake at 1 h ([4]; fat, n = 4, read-out: Fat uptake) was 0.19 ± 0.18 %ID/g, the tissue uptake at 1 h ([4]; heart, n = 4, read-out: Heart uptake) was 0.35 ± 0.18 %ID/g and the tissue uptake at 1 h ([4]; intestines, n = 4, read-out: Intestines uptake) was 1.06 ± 0.26 %ID/g. It also gave a tissue uptake at 1 h ([4]; kidneys, n = 4, read-out: Kidneys uptake) of 4.61 ± 2.72 %ID/g, a tissue uptake at 1 h ([4]; liver, n = 4, read-out: Liver uptake) of 0.65 ± 0.19 %ID/g and a tissue uptake at 1 h ([4]; lungs, n = 4, read-out: Lungs uptake) of 1.63 ± 0.75 %ID/g. The tissue uptake at 1 h ([4]; muscle, n = 4, read-out: Muscle uptake) was 0.24 ± 0.12 %ID/g, the tissue uptake at 1 h ([4]; pancreas, n = 4, read-out: Pancreas uptake) was 2.41 ± 0.72 %ID/g and the tissue uptake at 1 h ([4]; spleen, n = 4, read-out: Spleen uptake) was 0.5 ± 0.32 %ID/g. For the same compound, the tissue uptake at 1 h ([4]; stomach, n = 4, read-out: Stomach uptake) was 0.82 ± 0.37 %ID/g, the tissue uptake at 1 h ([4]; testes, n = 4, read-out: Testes uptake) was 0.37 ± 0.06 %ID/g and the “visualization of PC-3 tumor xenografts in PET images” value [5] was “clearly visualized”. The excretion pathway ([5]; PET images) was “primarily excreted via the renal pathway”.

In the case of “D-2-Nal-[Leu^13ψThz^14]Bombesin(7–14) [RC-3965-II]”, the “binding affinity to GRPR” value [6] is given as “picomolar binding affinity”.

In the case of “D-Phe-[Leu^13ψThz^14]Bombesin(7–14) [RC-3950-II]”, the “binding affinity to GRPR” value [6] is listed as “picomolar binding affinity”.

For “D-Tpi-[Leu^13ψThz^14]Bombesin(7–14) [RC-3910-II]”, the “binding affinity to GRPR” value [6] is given as “picomolar binding affinity”.

Compound “Ga-TacBOMB2: nonradioactive Ga-complexed standard of TacBOMB2 (FQWAVGHLX; Ga-DOTA-Pip (4-amino-(1-carboxymethyl)piperidine) on the N-terminus; residue 1 is D-Phe; X9 = Thz (thiazoline/thiazolidine-4-carboxylic acid, named thiazoline in the text) replacing Met14, normal Leu1)” has a Ki [7] of 7.62 ± 0.19 nM.

In the case of “[D-Phe^6,Leu-NHEt^13,des-Met^14]Bombesin(6–14)”, the “Ca2+ efflux (RFU = max–min)” value [1] is reported as 25.3 ± 1.92 RFUs.

For bombesin, the “Ca2+ efflux (RFU = max–min)” value [1] was 754 ± 38.3 RFUs.
